Literature values in patent publication US20030166006A1, “Glucose-1-phosphate thymidylyltransferase and method for selecting inhibitors thereof” (priority 2000, published 2003).

Biological target: RmlA from Pseudomonas aeruginosa (Pseudomonas aeruginosa, UniProt Q9HU22)
Settings: allosteric feedback inhibition by final product of the four enzyme pathway; Melo & Glaser, 1965

RmlA from Pseudomonas aeruginosa, sequence (Q9HU22 1-293): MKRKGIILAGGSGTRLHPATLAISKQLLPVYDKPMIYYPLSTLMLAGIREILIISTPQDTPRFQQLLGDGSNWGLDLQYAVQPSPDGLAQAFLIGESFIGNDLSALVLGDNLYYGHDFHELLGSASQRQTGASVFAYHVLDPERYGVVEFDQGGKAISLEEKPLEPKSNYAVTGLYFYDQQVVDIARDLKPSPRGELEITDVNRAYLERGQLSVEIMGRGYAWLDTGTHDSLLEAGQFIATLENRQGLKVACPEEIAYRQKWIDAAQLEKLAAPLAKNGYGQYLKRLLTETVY

inhibition of RmlA: strongly inhibited
SMILES: Cc1cn([C@H]2C[C@H](O)[C@@H](COP(=O)(O)OP(=O)(O)OC3OC(C)C(O)C(O)C3O)O2)c(=O)[nH]c1=O (stereo partly drawn) [dTDP-rhamnose, 2′-deoxy-thymidylyl-diphospho-L-rhamnose]
